Laboratory results as given in ChEMBL document CHEMBL3526006, “Metabolite profiling of bendamustine in urine of cancer patients after administration of [14C]bendamustine” (Drug Metab Dispos, 2012).

Assays:
Type in all cases: ADME, organism-based
[1] = Drug excretion in human urine assessed as retention time treated with [14C]bendamustine at 120 mg/m'2, iv after 2 hrs by 180 mins LC-LSC-MSn method
[2] = Drug excretion in human urine assessed as retention time treated with [14C]bendamustine at 120 mg/m'2, iv after 2 hrs by 60 mins LC-LSC-MSn method
[3] = Drug excretion in human urine treated with [14C]bendamustine at 120 mg/m'2, iv after 2 hrs by 60-min LC-LSC-MSn method; conditions: in vivo
[4] = Drug level in human urine treated with [14C]bendamustine at 120 mg/m'2, iv up to 168 hrs by 60-min LC-LSC-MSn method; conditions: in vivo
[5] = Total drug recovery in human at 120 mg/m'2, iv administered as single dose measured up to 3 weeks; conditions: in vivo, read-out: Drug recovery
[6] = Drug recovery in human urine at 120 mg/m'2, iv administered as single dose measured up to 3 weeks; conditions: read-out: Drug recovery
[7] = Drug excretion in human urine assessed as retention time at 120 mg/m'2, iv after 2 hrs by 180-min LC-LSC-MSn method
[8] = Drug excretion in human urine assessed as 4-(6-(bis(2-hydroxyethyl)amino)-1-methyl-1H-benzo[d]imidazol-2-yl)butanoic acid formation at 120 mg/m'2, iv up to 168 hrs by 60-min LC-LSC-MSn method; conditions: in vivo
[9] = Drug excretion in human urine assessed as 4-(6-(bis(2-hydroxyethyl)amino)-1-methyl-1H-benzo[d]imidazol-2-yl)-4-hydroxybutanoic acid formation at 120 mg/m'2, iv up to 168 hrs by 60-min LC-LSC-MSn method; conditions: in vivo
[10] = Drug excretion in human urine assessed as 4-(6-((2-(2-amino-2-carboxyethylthio)ethyl)(2-hydroxyethyl)amino)-1-methyl-1H-benzo[d]imidazol-2-yl)butanoic acid formation at 120 mg/m'2, iv up to 168 hrs by 60-min LC-LSC-MSn method; conditions: in vivo
[11] = Drug excretion in human urine assessed as 4-(6-((2-(2-amino-2-carboxyethylthio)ethyl)(2-hydroxyethyl)amino)-1-methyl-1H-benzo[d]imidazol-2-yl)-4-hydroxybutanoic acid formation at 120 mg/m'2, iv up to 168 hrs by 60-min LC-LSC-MSn method; conditions: in vivo

SMILES	Retention_time [1]	Retention_time [2]	Drug excretion [3]	other results
CC(=O)NC(CSCCN(CCCl)c1ccc2nc(CCCC(=O)O)n(C)c2c1)C(=O)O (centres undefined)	97.6 min	32.2 min	> 1%	–
Cn1c(C(O)CCC(=O)O)nc2ccc(N(CCO)CCSCC(N)C(=O)O)cc21 (centres undefined)	19.7 min	11 min	> 1%	Drug excretion [4]: metabolite_detected
Cn1c(CCCC(=O)O)nc2ccc(N(CCO)CCSCC(N)C(=O)O)cc21 (centres undefined)	29 min	15.8 min	> 1%	Drug excretion [4]: metabolite_detected
CN1CC(=O)N=C1NCCN(CCO)c1ccc2nc(CCCC(=O)O)n(C)c2c1	24.2 min	13.9 min	> 1%	–
Cn1c(CCCC(=O)O)nc2ccc(NCC=O)cc21	29.4 min	16.9 min	> 1%	–
Cn1c(C(O)CCC(=O)O)nc2ccc(N(CCO)CCCl)cc21 (centres undefined)	71.3 min	27.1 min	> 1%	–
Cn1c(CCCC(=O)O)nc2ccc(N(CCCl)CCSCC(N)C(=O)O)cc21 (centres undefined)	73.7 min	26.5 min	> 1%	–
Cn1c(CCCC(=O)O)nc2ccc(N(CCS)CCCl)cc21	99.4 min	35.1 min	> 1%	–
Cn1c(CCCC(=O)O)nc2ccc(NCCCl)cc21	72.5 min	28.6 min	> 1%	–
O=C(O)CCC(O)c1nc2ccc(N(CCCl)CCCl)cc2[nH]1 (centres undefined)	105.1 min	35.3 min	> 1%	–
Cn1c(CCCC(=O)O)nc2ccc(N(CCCl)CCOP(=O)(O)O)cc21	70.7 min	26.1 min	> 1%	–
Cn1c(C(O)CCC(=O)O)nc2ccc(N(CCO)CCOP(=O)(O)O)cc21 (centres undefined)	14.7 min	7.9 min	> 1%	–
O=C(O)CCCc1nc2ccc(N(CCO)CCO)cc2[nH]1	18.7 min	10.9 min	> 1%	–
Cn1c(CCCC(=O)O)nc2ccc(N(CCO)CCOP(=O)(O)O)cc21	22 min	12.1 min	> 1%	–
Cl.Cn1c(CCCC(=O)O)nc2ccc(N(CCCl)CCCl)cc21	–	–	–	dose excreted at 504 h [5]: 76%; dose excreted at 504 h [6]: 3%; Retention_time [7]: 36.3 min; Drug excretion [8]: metabolite_detected; Drug excretion [9]: metabolite_detected; Drug excretion [10]: metabolite_detected; Drug excretion [11]: metabolite_detected
Cn1c(C(O)CCC(=O)O)nc2ccc(N(CCO)CCO)cc21 (centres undefined)	23.8 min	13.3 min	> 1%	Drug excretion [4]: metabolite_detected
Cn1c(C(O)CCC(=O)O)nc2ccc(NCCCl)cc21 (centres undefined)	57.3 min	25.4 min	> 1%	–
Cn1c(CCCC(=O)O)nc2ccc(N(CCO)CCCl)cc21	82.7 min	29.2 min	> 1%	–
Cn1c(CCCC(=O)O)nc2ccc(N(CCO)CCS)cc21	64.4 min	24.2 min	> 1%	–
Cn1c(C(O)CCC(=O)O)nc2ccc(N(CCCl)CCCl)cc21 (centres undefined)	104.5 min	35.1 min	> 1%	–
Cn1c(CCCC(=O)O)nc2ccc(N(CCO)CCO)cc21	33.7 min	17.6 min	> 1%	Drug excretion [4]: metabolite_detected
CN1CC(=O)N=C1NCCN(CCCl)c1ccc2nc(CCCC(=O)O)n(C)c2c1	54.6 min	23.1 min	> 1%	–
